In patent publication US20160000796A1, “PHARMACEUTICAL COMPOSITION FOR USE IN PREVENTION OR TREATMENT OF CANCER” (priority 2013, published 2016):

Tests used:
[1] = tested on: HTLV-1; assay: Measurement of amount of virus (HTLV-1 P19 ELISA), HUT102; format: cell-based, human T-cell leukemia virus type 1; conditions: 100 μM, Day 0, 2, 4, 7, compared among six NRTIs
Description: HTLV-1-producing cell lines, MT2 (transformant with HTLV-1, JCRB cell No: JCRB1210) and HUT102 (ATL-derived cell line, ATCC No: TIB-162), were used.
Each nucleoside analogue reverse transcriptase inhibitor was added to the medium for cells at a final concentration of 100 μM. Cells were seeded on a 96-well plate at a concentration of 1×10^4 cells/100 μL/well and cultured for 0 hour (Day 0), 48 hours (2 days), 96 hours (4 days) or 168 hours (7 days). At each time point, the medium was collected. The amount of virus contained in the medium collected at each time point (pg/mL) was measured by HTLV-1 P19 ELISA kit (manufactured by Zeptometrix).

[2] = tested on: ATL cell line, ED40515 (−); assay: Chromosome double-strand break (Giemsa chromosome specimens), ED40515 (−); format: cell-based; conditions: 48 hours, abacavir 10-100 μM, zidovudine 10 or 100 μM
Description: (§1) Abacavir was added to an ATL cell line, ED40515 (−), at a concentration of 0 μM (DMSO was added instead of abacavir), 10 μM, 25 μM, 50 μM, 75 μM or 100 μM. After the 48 hours culture, the cells were fixed by Carnoy and stained with Giemsa to prepare chromosome specimens in accordance with conventional methods. Similarly, zidovudine was added to ED40515 (−) at a concentration of 10 μM or 100 μM, and abacavir was added to a non-ATL cell line, Jurkat, at a concentration of 100 μM, and chromosome specimens were prepared. Chromosome images (100 or more images per group) were observed by an optical microscope. The cells were determined as being positive for double-strand break (DSB) when at least one chromosome break was found.

[3] = tested on: non-ATL cell line, Jurkat; assay: Chromosome double-strand break (Giemsa chromosome specimens), Jurkat; format: cell-based, human; conditions: 100 μM, 48 hours
Description: as §1

[4] = tested on: non-ATL cell line, Jurkat; assay: PARP inhibitor combination, cellular proliferation (MTS), Jurkat; format: cell-based, human; conditions: abacavir 10, 50 or 100 μM, 48 hours
Description: To an ATL cell line, ED40515 (−), or a non-ATL cell line, Jurkat, abacavir was added at a concentration of 0 μM (DMSO, was added instead of abacavir), 10 μM, 50 μM or 100 μM, and further a PARP inhibitor, olaparib, was added at a concentration of 0 μM (DMSO was added instead of olaparib), 1 μM, 10 μM, 100 μM or 1000 μM. The cells were cultured for 48 hours. MTS assay was performed using a reagent for cellular proliferation test, Aqueous One Solution Cell Proliferation (trade name, manufactured by Promega), in the same manner as in Example 1. The cellular proliferation was represented by a ratio relative to that of the control (solvent control) on Day 0 that was regarded as 1.

[5] = tested on: ATL cell line, ED40515 (−); assay: Cell-cycle analysis by flow cytometry (PI), ED40515 (−); format: cell-based; conditions: 10 μM or 100 μM, 24 hours
Description: (§2) To an ATL cell line, ED40515 (−), or a non-ATL cell line, Jurkat, DMSO (solvent control), adriamycin (ADR, positive control) or abacavir (10 μM or 100 μM) was added.

[6] = tested on: non-ATL cell line, Jurkat; assay: Cell-cycle analysis by flow cytometry (PI), Jurkat; format: cell-based, human; conditions: 10 μM or 100 μM, 24 hours
Description: as §2

[7] = tested on: ATL cell line, ED40515 (−); assay: Apoptosis (annexin V flow cytometry), ED40515 (−); format: cell-based; conditions: 100 μM, 24 or 48 hours
Description: DMSO (solvent control), adriamycin (ADR, positive control), or abacavir (100 μM) was added to an ATL cell line, ED40515 (−). The cells were cultured for 24 hours or 48 hours. After the culture of a predetermined time, the cells were stained with annexin V, and annexin V positive cells were measured by flow cytometry. The annexin V positive cells were determined as apoptotic cells.

[8] = tested on: TDP1-knocked-down cells (Jurkat); assay: Cellular proliferation (MTS) of TDP1-knocked-down cells; format: cell-based, human; conditions: TDP1 siRNA-introduced Jurkat versus control siRNA-introduced cells; 300 μM; 48 hours
Description: The cells were cultured for 48 hours. MTS assay was performed using a reagent for cellular proliferation test, Aqueous One Solution Cell Proliferation (trade name, manufactured by Promega), in the same manner as in Example 1.

[9] = tested on: NCI_H522 (lung cancer cell line lacking TDP1 expression); assay: Cellular proliferation (MTS) of lung cancer cell line NCI_H522; format: cell-based; conditions: 100, 200 or 300 μM, 72 hours
Description: Lung cancer cell lines lacking TDP1 expression, HOP—62 and NCI_H522, were used. NCI_H1299, a lung cancer cell line expressing TDP1, was used as a control. HOP—62 and NCI_H522 were provided by Dr. Pommier (DNA Repair. 2014 January; 13: 1-9).
Abacavir was added to each of the cell lines at a concentration of 0 μM (DMSO was added instead of abacavir), 100 μM, 200 μM or 300 μM. The cells were seeded on a 96-well plate at a concentration of 3×10^3 cells/100 μL/well and cultured for 4 hours or 72 hours. After the culture of a predetermined time, MTS assay was performed using a reagent for cellular proliferation, test, Aqueous One Solution Cell Proliferation (trade name, manufactured by Promega), in the same manner as in Example 1. The cellular proliferation was represented by a ratio relative to that of the control (solvent control) on Day 0 that was regarded as 100%.

## Nc1nc(NC2CC2)c2ncn([C@H]3C=C[C@@H](CO)C3)c2n1 [abacavir, (−)-(1S,4R)-4-[2-amino-6-(cyclopropylamino)-9H-purin-9-yl]-2-cyclopentene-1-methanol]
[1]
  viral production (amount of virus in the medium): most strongly suppressed
[2]
  ratio of double-strand break-positive cells: increased the ratio of double-strand break-positive cells in a dose-dependent manner
[3]
  ratio of double-strand break-positive cells: did not induce double-strand break
[4]
  cellular proliferation: did not suppress cellular proliferation
[5]
  cell cycle (ratio of cells in G0G1/S/G2 phase): induced the S/G2 arrest
[6]
  cell cycle (ratio of cells in G0G1/S/G2 phase): did not affect the cell cycle
[7]
  apoptosis (annexin V positive cells): induced apoptosis
[8]
  cellular proliferation relative to abacavir-non-treated cells (100%): significantly lower
[9]
  cellular proliferation: suppressed cellular proliferation of HOP—62 and NCI_H522 lacking TDP1 expression in a concentration dependent manner
